# Test results: US12616760B2, “Synthetic cyclic peptide mimetics” (priority 2020, dated 2026)
# Like-named read-outs stand apart in the source and are kept apart here. Square brackets hold non-standard residues; d marks the D form. Peptide text beside a SMILES is read from it. Nle = CCCC[C@H](N)C(=O)O; azaGly = NNC(=O)O
# Assays:
# [1] = target: T1, Aβ40 (Homo sapiens, UniProt P05067); experiment: Thioflavin T (ThT) fluorescence assay of Aβ40 aggregation; type: biochemical; details: for Inhibition of amyloidogenic activity: Table 4; for Inhibition of amyloidogenic activity / Inhibition of amyloidogenic activity(%): ThT
# T1 construct: The extent of Aβ40 aggregation in the presence of increasing concentrations of azacyclopeptides
# Protocol: Amyloid generation can be identified and quantified using the thioflavin T (ThT) fluorescence dye assay. […] Agents that bind and inhibit aggregation of Aβ diminish ThT fluorescence relative to untreated Aβ. The extent of Aβ40 aggregation in the presence of increasing concentrations of azacyclopeptides and azasulfurylcyclopeptide 55 was evaluated by the ThT assay. Fluorescence of Aβ40 that was aged for 48 h was used as control, defined as 0% anti-amyloidogenic activity, and compared with fluorescence in the presence of cyclic peptide mimics at increasing concentrations to measure anti-amyloidogenic activity.
# [2] = system: rat pheochromocytoma PC12 cells; type: cell-based; set-up: Cells survival (%): concentration or dose not given beside the values; details: for Cells survival (%): PC12, MTT
# Protocol: Considering that self-assembly and aggregation of Aβ are key components of AD pathogenesis, the ability of azaGly-cyclopeptides 2-7 to reduce Aβ-induced toxicity was next tested in rat pheochromocytoma PC12 cells. Cells were incubated for 24 h with Aβ40 (10 μM) that had been aged for 48 h in the presence and absence of increasing concentrations of the azacyclopeptides. Cell viability was assessed using the 3-(4,5-dimethylthiazol-2-yl)-2,5-diphenyltetrazolium bromide (MTT) survival assay (Table 2). In this assay, viable cells reduce permeable MTT by active metabolism to produce a purple-colored formazan product with absorbance maximum near 570 nm. Dead cells lose the ability to convert MTT into formazan. The quantity of formazan is therefore directly proportional to the number of viable cells and measurable over time by recording changes in absorbance using a spectrophotometer. Neurons are susceptible to the lethal effects of misfolded proteins which are likely to aggregate at increased concentration. The pheochromocytoma (PC12) cell line is commonly used in in vitro studies to examine neuronal variation and neurotoxicity as a model of neurodegenerative disease.
# [3] = Aβ:peptide 1:5, 10 μM soluble Aβ40
# [4] = Aβ:peptide 1:10, 10 μM soluble Aβ40
# [5] = Aβ:peptide 1:0.1, 10 μM soluble Aβ40
# [6] = Aβ:peptide 1:1, 10 μM soluble Aβ40
# T1 sequence (P05067 672-711 limits assumed): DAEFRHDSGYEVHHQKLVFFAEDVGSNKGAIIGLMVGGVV
Molecule,Inhibition of amyloidogenic activity ([1]; Aβ:peptide 1:1) [%],Inhibition of amyloidogenic activity ([1]; Aβ:peptide 1:5) [%],Inhibition of amyloidogenic activity ([1]; Aβ:peptide 1:10) [%],"Cells survival (%) ([2]; Table 4, Aβ:peptide 1:1)","Cells survival (%) ([2]; Table 4, Aβ:peptide 1:5)","Inhibition of amyloidogenic activity(%) ([1]; Table 5, Aβ:peptide 1:1)","Inhibition of amyloidogenic activity(%) ([1]; Table 5, Aβ:peptide 1:5)","Inhibition of amyloidogenic activity(%) ([1]; Table 5, Aβ:peptide 1:10)","Cells survival (%) ([2]; Table 5, Aβ:peptide 1:1)","Cells survival (%) ([2]; Table 5, Aβ:peptide 1:5)",further results
c(D-Leu-L-Nle-D-Trp-Tal*-D-Ser-L-Lys) [Compound 13],58.0,72.6,78.4,70.8,96.3,,,,,,
c(D-Leu-L-Nle-D-Trp-D-His-IPrTyr*-L-Lys) [Compound 11],,,,,,3.5,54.7,54.2,72.4,74.3,
c(D-Leu-L-Nle-D-Trp-L-His-IPrTyr*-L-Lys) [Compound 10],,,,,,8.2,85.2,86.2,75.4,83.4,
c(D-Leu-L-Nle-D-Trp-L-His-Hse*-L-Lys) [Compound 9],8.3,77.9,77.2,82.8,97.9,,,,,,
c(D-Leu-L-Nle-D-Trp-Phe*-D-Ser-L-Lys) [Compound 12],,,,,,54.4,77.7,80.9,70.1,87.9,
"CCCC[C@@H]1NC(=O)NNC(=O)[C@H](CCCCN)NC(=O)[C@@H](CO)NC(=O)[C@H](Cc2c[nH]cn2)NC(=O)[C@@H](Cc2c[nH]c3ccccc23)NC1=O [Compound 7, c(Gly*-L-Nle-D-Trp-L-His-D-Ser-L-Lys)] (cyclo(K[azaGly][Nle][dW]H[dS]))",,,,,,,,,,,"Inhibition of amyloidogenic activity(%) [1, 3]: 78.8%; Inhibition of amyloidogenic activity(%) [1, 4]: 80.5%; effect on lag phase and ThT fluorescence ([1]; incubation with Aβ): dramatically prolonged the lag phase and reduced the ThT fluorescence"
c(D-Leu-L-Nle-Itr*-L-His-D-Ser-L-Lys) [Compound 15],78.0,81.6,86.1,78.8,71.7,,,,,,
c(D-Leu-Nle*-D-Trp-L-His-D-Ser-L-Lys) [Compound 16],72.9,76.4,85.1,86.3,94.5,,,,,,
c(4-Phe*-L-Nlc-D-Trp-L-His-D-Ser-L-Lys) [Compound 20],,,,,,1.6,48.4,68.4,73.0,84.9,
c(Phe*-L-Nle-D-Trp-L-His-D-Ser-L-Lys) [Compound 19],,,,,,12.5,54.5,61.2,73.0,74.5,
c(D-Leu-Phe*-D-Trp-L-His-D-Ser-L-Lys) [Compound 17],,,,,,3.5,36.9,79.8,61.8,69.5,
"CC(C)C[C@H]1NC(=O)[C@H](CCCCN)NC(=O)[C@@H](CO)NC(=O)[C@H](Cc2c[nH]cn2)NC(=O)[C@@H](Cc2c[nH]c3ccccc23)NC(=O)NNC1=O [Compound 6, c(D-Leu-Gly*-D-Trp-L-His-D-Ser-L-Lys)] (cyclo(K[dL][azaGly][dW]H[dS]))",,,,,,,,,,,"Inhibition of amyloidogenic activity(%) [1, 3]: 80.1%; Inhibition of amyloidogenic activity(%) [1, 4]: 81.8%; effect on lag phase and ThT fluorescence ([1]; incubation with Aβ): dramatically prolonged the lag phase and reduced the ThT fluorescence"
"CCCC[C@@H]1NC(=O)[C@@H](CC(C)C)NC(=O)[C@H](CCCCN)NC(=O)[C@@H](CO)NC(=O)[C@H](Cc2c[nH]cn2)NC(=O)NNC1=O [Compound 5, c(D-Leu-L-Nle-Gly*-L-His-D-Ser-L-Lys)] (cyclo(K[dL][Nle][azaGly]H[dS]))",,,,,,,,,,,"Inhibition of amyloidogenic activity(%) [1, 5]: 55.3%; Inhibition of amyloidogenic activity(%) [1, 6]: 89.8%; Inhibition of amyloidogenic activity(%) [1, 3]: 91.1%; Inhibition of amyloidogenic activity(%) [1, 4]: 90.8%; effect on lag phase and ThT fluorescence ([1]; incubation with Aβ): dramatically prolonged the lag phase and reduced the ThT fluorescence"
"CCCC[C@@H]1NC(=O)[C@@H](CC(C)C)NC(=O)[C@H](CCCCN)NC(=O)[C@@H](CO)NC(=O)[C@H](Cc2c[nH]cn2)NC(=O)[C@@H](Cc2c[nH]c3ccccc23)NC1=O [Compound 1, Cyclo-L-lysine-D-leucine-L-norleucine-D-tryptophan-L-histidine-D-serine, reference compound] (cyclo(K[dL][Nle][dW]H[dS]))",44.6,84.7,92.8,,,44.6,84.7,92.8,,,"Inhibition of amyloidogenic activity(%) [1, 6]: 44.6%; Inhibition of amyloidogenic activity(%) [1, 3]: 84.7%; Inhibition of amyloidogenic activity(%) [1, 4]: 92.8%"
c(D-Leu-L-Nle-D-Trp-Pra*-D-Ser-L-Lys) [Compound 14],,,,,,76.9,81.2,81.4,71.7,83.5,
"CCCC[C@@H]1NC(=O)[C@@H](CC(C)C)NC(=O)[C@H](CCCCN)NC(=O)[C@@H](CO)NC(=O)NNC(=O)[C@@H](Cc2c[nH]c3ccccc23)NC1=O [Compound 4, c(D-Leu-L-Nle-D-Trp-Gly*-D-Ser-L-Lys)] (cyclo(K[dL][Nle][dW][azaGly][dS]))",,,,,,,,,,,"Inhibition of amyloidogenic activity(%) [1, 6]: 50.2%; Inhibition of amyloidogenic activity(%) [1, 3]: 75%; Inhibition of amyloidogenic activity(%) [1, 4]: 68.8%"
c(D-Leu-L-Nle-D-Trp-L-His-Gly^-L-Lys) [Compound 55],,,,,,,,,76.9,106,
c(Leu*-L-Nlc-D-Trp-L-His-D-Ser-L-Lys) [Compound 18],15.4,17.1,37.5,72.8,76.3,,,,,,
"CCCC[C@@H]1NC(=O)[C@@H](CC(C)C)NC(=O)NNC(=O)[C@@H](CO)NC(=O)[C@H](Cc2c[nH]cn2)NC(=O)[C@@H](Cc2c[nH]c3ccccc23)NC1=O [Compound 2, c(D-Leu-L-Nle-D-Trp-L-His-D-Ser-Gly*)] (cyclo([azaGly][dL][Nle][dW]H[dS]))",,,,,,,,,,,"Inhibition of amyloidogenic activity(%) [1, 5]: 63.9%; Inhibition of amyloidogenic activity(%) [1, 6]: 76.7%; effect on lag phase and ThT fluorescence ([1]; above stoichiometric concentrations): promoted significantly fibrilization of Aβ shortening the lag-phase and increasing ThT fluorescence; effect on lag phase and ThT fluorescence ([1]; at and below stoichiometric concentrations): prolonged dramatically the lag-phase and reduced ThT fluorescence; cell survival ([2]; 24 h): 87%"
c(D-Leu-L-Nle-D-Trp-L-His-D-Ser-Lys*) [Compound 8],54.4,77.8,80.9,80.1,91.3,,,,,,
